Measurements taken from publication PMC9311059, “P‐Glycoprotein and Breast Cancer Resistance Protein Transporter Inhibition by Cyclosporine and Quinidine on the Pharmacokinetics of Oral Rimegepant in Healthy Subjects” (Clinical Pharmacology in Drug Development, 2022).
Values joined by “and” are separate entries in the source; they are usually repeats but may differ in a detail not shown here. Identical values can stand only once. Like-named read-outs stand apart in the source and are kept apart here.

How the values were obtained:
[1] = design: method as in unpublished; conditions: rimegepant 75 mg with itraconazole 200 mg once daily for 7 consecutive days, healthy adults; ref unpublished; cited from earlier work
[2] = design: method as in PMID 23965396; conditions: single and 2‐week multiple daily oral doses up to 600 mg; cited from earlier work
[3] = Safety assessment (adverse events, ECG, vital signs, S-STS) in parts 1 and 2
Description: Safety was assessed using adverse events (AEs) that occurred from signing informed consent through 4 days after the last study drug administration, physical examination, body measurements, and the S‐STS. Safety was also assessed through vital signs (blood pressure, heart rate, respiratory rate, oral temperature), and electrocardiography. In part 2, cardiac telemetry was recorded continuously from ≈10 hours before dosing until 6 hours after dosing in each period (8 hours after dosing in subjects receiving quinidine with an increased QT interval at the 6‐hour assessment).
Safety laboratory assessments included a QuantiFERON‐TB test (Hilden, Germany); pregnancy tests (urine and serum); drug, alcohol, and cotinine screen; hematology; biochemistry; coagulation (in case of abnormal liver function tests); serology; and urinalysis.
Safety data were summarized but not subjected to inferential analysis.

BCRP = tested on: BCRP; design: method as in ref 7 = [7]; PMID 32058712; doi:10.1021/acs.jmedchem.9b01810; 7 Dubowchik GM , Conway CM , Xin AW . Blocking the CGRP pathway for acute and preventive treatment of migraine: the evolution of success . J Med Chem . 2020; 63 ( 13 ): 6600 ‐ 6623 . 32058712 10.1021; conditions: in vitro; cited from earlier work
[4] = Part 2: pharmacokinetics of rimegepant 75 mg ODT alone or coadministered with quinidine 600 mg, 2-way crossover; assay type: in vivo, human; conditions: for AUC / Cmax: po, 75 mg; for Tmax: read-out: tmax, median (range)
Description: This phase 1, open‐label, randomized, single‐dose, 2‐way crossover, 2‐part, drug‐drug interaction study was conducted at a single center (Syneos Health, Québec, Canada). Subjects were screened within 28 days preceding administration of study medication. In part 1, fasted subjects were randomly assigned to a single dose of rimegepant 75 mg ODT or a single dose of rimegepant 75 mg ODT coadministered with cyclosporine 200 mg (2 × 100‐mg capsules). […] Following the completion of part 1, an interim PK analysis and review of data were performed. […] In part 2, fasted subjects were randomly assigned to a single dose of rimegepant 75 mg ODT or a single dose of rimegepant 75 mg ODT coadministered with quinidine 600 mg (2 × 300‐mg tablets).
In part 1, subjects received 1 of the following treatments under fasting conditions: 1 oral dose of rimegepant 75 mg ODT (Catalent Pharma Solutions, Swindon, UK) or 1 oral dose of rimegepant 75 mg ODT coadministered with cyclosporine 200 mg (Novartis Pharmaceuticals Canada Inc., Dorval, Quebec, Canada). In part 2, subjects received 1 of the following treatments under fasting conditions: 1 oral dose of rimegepant 75 mg ODT alone or 1 oral dose of rimegepant 75 mg ODT coadministered with quinidine 600 mg (Sandoz Inc., West Princeton, New Jersey). In parts 1 and 2, the interval between treatments could not exceed 2 minutes.
For each treatment, subjects were confined from the morning of day −1 until after the 24‐hour postdose blood draw on day 2. Subjects returned for all subsequent blood draws. No food was allowed from at least 10 hours before dosing until at least 4 hours after dosing. Meals were standardized and similar in composition between periods. Except for water given with cyclosporine and quinidine, no fluids were allowed from 1 hour before dosing until 1 hour after dosing. Water was provided ad libitum at all other times. […] When appropriate, subjects were accompanied by a staff member while walking.
In each period, 20 blood samples for PK assessment were collected at the following time points: before dosing; 5, 10, 20, 30, 40, and 50 minutes after dosing; and 1, 1.5, 2, 2.5, 3, 4, 5, 6, 8, 12, 24 (day 2), 48 (day 3), and 72 (day 4) hours after dosing. […] Plasma samples were assayed for rimegepant using ultra‐performance liquid chromatography with tandem mass spectrometry detection (LC‐MS/MS). The quantifiable range was 10 to 5000 ng/mL. Plasma samples containing human ethylenediaminetetraacetic acid (EDTA) K2 plasma as an anticoagulant were processed using automated protein precipitation before LC‐MS/MS analysis. The internal standard was rimegepant‐^13C2d4. The validation was performed using an API 5000 LC/MS/MS system with Analyst software, version 1.6.3 (SCIEX, Framingham, Massachusetts). The pump flow was isocratic, with a flow rate set at 0.600 mL/min. The column was an Acquity UPLC BEH C18, 50×2.1 mm, 1.7 μm (Waters Corporation, Framingham, Massachusetts), which was maintained at a temperature of 60°C and contained Milli‐Q type water/acetonitrile with ammonium acetate and acetic acid. […] Incurred sample reanalysis was carried out on ≈10% of randomly selected samples.
The effects of cyclosporine (part 1) or quinidine (part 2) on the single‐dose PK of rimegepant were evaluated using general linear model procedures in SAS (SAS Institute, Cary, North Carolina). In these evaluations, analysis of variance (ANOVA) model was performed on untransformed tmax, terminal elimination rate constant, and t1/2el and on log‐transformed AUC0‐t, AUC0‐inf, and Cmax at the alpha level of .05. The model included treatment, sequence, and period as fixed effects, and subject nested within sequence as a random effect. Intra‐ and intersubject coefficient of variation were estimated.

[5] = parts 1 and 2, rimegepant alone or coadministered
[6] = by quinidine 600 mg, single dose rimegepant 75 mg ODT, vs rimegepant alone
[7] = coadministration with quinidine 600 mg, rimegepant 75 mg

N[C@@H]1c2cccnc2[C@H](OC(=O)N2CCC(n3c(=O)[nH]c4ncccc43)CC2)CC[C@H]1c1cccc(F)c1F [Rimegepant]
increase in rimegepant AUC [1]: 400%
increase in rimegepant Cmax [1]: 40%
tolerability [2]: well tolerated
subjects discontinued due to AEs ([3]; part 2, rimegepant group: sinus tachycardia, rimegepant‐quinidine group: false‐positive SARS‐CoV‐2 test): 1 subjects
nausea (TEAE), number of subjects ([3]; parts 1 and 2): 1 subjects
serious AEs [3, 5]: No serious AEs were reported
severity of TEAEs [3, 5]: mild or moderate
tolerability ([3]; single oral dose rimegepant 75 mg ODT alone or coadministered with cyclosporine or quinidine, parts 1 and 2): well tolerated and safe
substrate of BCRP transporter (BCRP): substrate
increase in rimegepant AUC0‐inf [4, 6]: 54.8% and 55%
increase in rimegepant Cmax [4, 6]: 66.9% and 67%
rimegepant AUC0‐inf geometric mean ratio (90% CI) versus rimegepant alone [4, 7]: 1.55 (1.40‐1.72)
rimegepant Cmax geometric mean ratio (90% CI) versus rimegepant alone [4, 7]: 1.67 (1.46‐1.91)
AUC ([4]; human, plasma, part 2, rimegepant 75 mg ODT alone, single oral dose, fasted, plasma, N = 12, read-out: AUC0‐inf, geometric least squares mean): 4410 ng·h/mL
AUC ([4]; human, plasma, part 2, rimegepant 75 mg ODT alone, single oral dose, fasted, plasma, N = 12, read-out: AUC0‐t, geometric least squares mean): 4400 ng·h/mL
Cmax ([4]; human, plasma, part 2, rimegepant 75 mg ODT alone, single oral dose, fasted, plasma, N = 12, read-out: Cmax, geometric least squares mean): 797 ng/mL
AUC ([4]; human, plasma, part 2, rimegepant ODT 75 mg alone, single oral dose, N 12, read-out: AUC0‐inf, arithmetic mean (percent coefficient of variation)): 4540 ng·h/mL
AUC ([4]; human, plasma, part 2, rimegepant ODT 75 mg alone, single oral dose, N 12, read-out: AUC0‐t, arithmetic mean (percent coefficient of variation)): 4520 ng·h/mL
Cmax ([4]; human, plasma, part 2, rimegepant ODT 75 mg alone, single oral dose, N 12, read-out: Cmax, arithmetic mean (percent coefficient of variation)): 829 ng/mL
Tmax ([4]; human, plasma, part 2, rimegepant ODT 75 mg alone, single oral dose, N 12): 1.5 h
half-life ([4]; human, plasma, part 2, rimegepant ODT 75 mg alone, single oral dose, N 12, read-out: t½el, arithmetic mean (percent coefficient of variation) (converted)): 8.56 h
Tmax ([4]; human, plasma, part 2, rimegepant ODT 75 mg coadministered with quinidine 600 mg, single oral dose, N 12): 2.8 h
CL/F, arithmetic mean (percent coefficient of variation) ([4]; part 2, rimegepant ODT 75 mg alone, single oral dose, N 12): 17.39 (24.68) L/h
difference in geometric mean t1/2el between treatments ([4]; part 2, rimegepant with quinidine vs rimegepant alone): ≤ 20%
